According to US20100266716A1, “Natural Photodynamic Agents and their use” (priority 2007, published 2010):

Assays:
Salmonella choleraesuis = test: MBEC device biofilm photodynamic killing (Example 1); assay type: cell-based; parameters: key to Killing of Salmonella cholerasuis biofilm (eradication or growth): “−” = biofilm eradication at the mentioned conditions (concentration, exposure time and Light source); “+” = biofilm growth; settings: for Killing of Salmonella cholerasuis biofilm (eradication or growth): 16 Hours exposure; for effective as photodynamic agent in killing biofilm organisms: Salmonella choleraesuis and Staphylococcus aureus biofilm, summary of Table 1
Excerpt: (§1) Test microorganisms included Salmonella choleraesuis, Staphylococcus aureus, foodborne pathogens of humans. Test Compounds included Methylene blue, Hemoglobin (blood product), Hemin (blood product), Protoporphyrin (blood product), Annatto Extract (15% Norbixin), beet juice, Canthaxanthin (10%), Beta-carotene (1%), Purple carmine 50%, Carmine lake 60%, Black Carrot extract, Tomato lycopene (5%), sodium copper chlorophyllin, grape skin extract, paprika oleoresin, riboflavin, saffron, titanium dioxide, FD&C blue No1., turmeric oleoresin, FD&C blue No. 2, FD&C Green No. 3, FD&C Red No. 2 (Amaranth), FD&C Red No. 40, FD&C Yellow No. 5, and FD&C Yellow No. 6. Compounds were prepared as 1%, 0.1%, 0.01%, by weight, dissolved in water.
(§2) The light source was a full spectrum fluorescent light or LED light and the contact time was 1 and 16 hours. The study temperature was 37° C.
(§3) Approximately 10^6 organisms in 150 uL Cation Adjusted Mueller Hinton Broth (CAMHB) were placed in each of the wells of a 96 peg MBEC device. The lid of the 96 peg MBEC device was placed on the bottom plate containing organism. The device was placed on a shaker, set to 110 rpm, and incubated at 37° C. for 24 hours to produce biofilms.
(§4) The challenge plates were set up using a sterile 96-well microtitre plate using aseptic techniques in the following manner (one organism per plate, per light exposure time, per light source). Test solutions (200 uL) were placed into each well. The lid was transferred to the challenge plate and exposed to the various light sources for the prescribed exposure times (16 hours). Following the treatment, the pegs were transferred to the recovery media (“recovery plate”) then wrapped in tin foil and incubated at 37° C. for 18 to 24 hours. The recovery plate(s) was wrapped in tin foil, incubated at 37° C. for 24 hours and read visually and by a plate reader, set to an optical density measurement of 630 nm, to determine Minimum Biofilm Eradication Concentration (MBEC) by looking at growth or no growth.

Staphylococcus aureus = test: as above; assay type: cell-based; parameters: key to Killing of Staph aureus biofilm (eradication or growth): “−” = biofilm eradication at the mentioned conditions (concentration, exposure time and Light source); “+” = biofilm growth; settings: 16 Hours exposure
Excerpt: as §1, §2, §3, §4

Row | Compound | Killing of Salmonella cholerasuis biofilm (eradication or growth) (Salmonella choleraesuis; Fluorescent Light, 0.01%) | Killing of Salmonella cholerasuis biofilm (eradication or growth) (Salmonella choleraesuis; Fluorescent Light, 0.1%) | Killing of Salmonella cholerasuis biofilm (eradication or growth) (Salmonella choleraesuis; Fluorescent Light, 1%) | Killing of Salmonella cholerasuis biofilm (eradication or growth) (Salmonella choleraesuis; LED Light, 0.01%) | Killing of Salmonella cholerasuis biofilm (eradication or growth) (Salmonella choleraesuis; LED Light, 0.1%) | Killing of Salmonella cholerasuis biofilm (eradication or growth) (Salmonella choleraesuis; LED Light, 1%) | effective as photodynamic agent in killing biofilm organisms (Salmonella choleraesuis) | Killing of Staph aureus biofilm (eradication or growth) (Staphylococcus aureus; Fluorescent Light, 0.01%) | Killing of Staph aureus biofilm (eradication or growth) (Staphylococcus aureus; Fluorescent Light, 0.1%) | Killing of Staph aureus biofilm (eradication or growth) (Staphylococcus aureus; Fluorescent Light, 1%) | Killing of Staph aureus biofilm (eradication or growth) (Staphylococcus aureus; LED Light, 0.01%) | Killing of Staph aureus biofilm (eradication or growth) (Staphylococcus aureus; LED Light, 0.1%) | Killing of Staph aureus biofilm (eradication or growth) (Staphylococcus aureus; LED Light, 1%)
1 | CCN(Cc1cccc(S(=O)(=O)[O-])c1)c1ccc(C(=C2C=CC(=[N+](CC)Cc3cccc(S(=O)(=O)[O-])c3)C=C2)c2ccccc2S(=O)(=O)[O-])cc1.[Na+].[Na+] [Blue No. 1, FD&C blue No1.] | − | − | − | + | + | + | Effective | + | + | + | + | + | +
2 | O=C1/C(=C2\Nc3ccc(S(=O)(=O)[O-])cc3C2=O)Nc2ccc(S(=O)(=O)[O-])cc21.[Na+].[Na+] [Blue No. 2, FD&C blue No. 2] | + | + | + | + | + | + |  | + | + | + | + | + | +
3 | CC1=C(/C=C/C(C)=C/C=C/C(C)=C/C=C/C=C(C)/C=C/C=C(C)/C=C/C2=C(C)C(=O)CCC2(C)C)C(C)(C)CCC1=O [Canthaxanthin] | + | + | + | + | + | + |  | + | + | + | + | + | +
4 | CCN(Cc1cccc(S(=O)(=O)[O-])c1)c1ccc(C(=C2C=CC(=[N+](CC)Cc3cccc(S(=O)(=O)[O-])c3)C=C2)c2ccc(O)cc2S(=O)(=O)[O-])cc1.[Na+].[Na+] [Green No. 3, FD&C Green No. 3] | + | + | + | + | + | + |  | + | + | + | + | + | +
5 | O=S(=O)([O-])c1ccc2c(N=Nc3ccc(S(=O)(=O)[O-])c4ccccc34)c(O)c(S(=O)(=O)[O-])cc2c1.[Na+].[Na+].[Na+] [Red No. 2, FD&C Red No. 2 (Amaranth)] | + | + | + | + | + | + |  | + | + | + | + | + | +
6 | COc1cc(S(=O)(=O)[O-])c(C)cc1N=Nc1c(O)ccc2cc(S(=O)(=O)[O-])ccc12.[Na+].[Na+] [Red No. 40, FD&C Red No. 40] | + | + | + | + | + | + |  | + | + | + | + | + | +
7 | Cc1cc2nc3c(=O)[nH]c(=O)nc-3n(C[C@H](O)[C@H](O)[C@H](O)CO)c2cc1C [Riboflavin, riboflavin] | + | + | + | + | + | + |  | + | + | + | + | + | +
8 | O=C([O-])C1=NN(c2ccc(S(=O)(=O)[O-])cc2)C(=O)C1N=Nc1ccc(S(=O)(=O)[O-])cc1.[Na+].[Na+].[Na+] (centres unmarked) [Yellow No. 5, FD&C Yellow No. 5] | + | + | + | + | + | + |  | + | + | + | + | + | +
9 | O=S(=O)([O-])c1ccc(N=Nc2c(O)ccc3cc(S(=O)(=O)[O-])ccc23)cc1.[Na+].[Na+] [Yellow No. 6, FD&C Yellow No. 6] | + | + | + | + | + | + |  | + | + | + | + | + | +
10 | CC1=C(/C=C/C(C)=C/C=C/C(C)=C/C=C/C=C(C)/C=C/C=C(C)/C=C/C2=C(C)CCCC2(C)C)C(C)(C)CCC1 [β-Carotene, Beta-carotene] | + | + | + | + | + | + |  | + | + | + | + | + | +
11 | Hemoglobin: Hemoglobin (blood product) | − | − | − | + | + | + | Effective | + | + | + | + | + | +
